Experimental data from US12534458B2, “Spiropiperidine allosteric modulators of nicotinic acetylcholine receptors” (Merck Sharp & Dohme LLC, priority 2019, dated 2026).

Biological target: human α7 nAChR (Homo sapiens (Human), UniProt P36544)
Assay: Automated patch-clamp electrophysiology functional assay (Assay A)
Assay type: cell-based
Conditions: IonFlux HT whole-cell population patch, HEK cell line stably expressing human RIC-3 and human α7, 40 μM acetylcholine
Method: The α7 nAChR positive allosteric modulator (PAM) activity of the present compounds may be tested using assays known in the art. The α7 nAChR PAMs described herein have activities in an automated patch-clamp electrophysiology functional assay as described in the examples. The assay was performed using the IonFlux HT in a whole-cell, population patch configuration. See Golden et al. Assay Drug Dev. Technol. (2011) 9:608-619. The compounds were assessed for their ability to modulate the function of the human α7 nAChR stably expressed in a HEK cell line both in the presence, and in the absence of the natural α7 agonist acetylcholine. By performing a series of such measurements at different concentrations, the effective concentration of the α7 nAChR PAMs (EC50) was determined. See Spencer et al. Assay Drug Dev. Technol. (2012) 10:313-324.
Direct activation of α7 (agonism), and potentiation of acetylcholine-evoked α7 currents was determined as follows:
Automated patch-clamp electrophysiology was performed using the IonFlux HT (Fluxion Biosciences Inc., San Francisco, CA) in the whole-cell, population patch configuration. Test compounds were assessed for their ability to modulate the function of the α7 nicotinic acetylcholine receptor both in the presence, and in the absence of the natural α7 agonist acetylcholine. A HEK cell line stably expressing both human RIC-3 and human α7 (PrecisION hnAChR α7/RIC-3, Eurofins Pharma, St. Charles, MO) was cultured in 175 cm^2 triple-layer tissue culture flasks to no more than 90% confluency in DMEM/F-12 growth media supplemented with 10% heat-inactivated fetal bovine serum, 1% non-essential amino acids, 0.625 μg/mL Puromycin, and 400 μg/mL Geneticin. Immediately prior to assay, cells were detached by first aspirating growth media, rinsing with Dulbecco's phosphate buffered saline, and then adding 10 mL of Accutase (Innovative Cell Technologies, San Diego, CA) to the flask and then incubating at 37° C. for 5 minutes. Detached cells were then recovered by the addition of 40 mL of CHO-serum-free media supplemented with 25 mM HEPES, and rocked gently in a 50 mL conical tube for 20 minutes prior to patch-clamp assay. After recovery, cells were pelleted by centrifugation at 1,000 RPM for 1 minute in a compact bench top centrifuge; recovery media was aspirated and cells were resuspended in external recording solution (150 mM NaCl, 5 mM KCl, 2 mM CaCl2), 1 mM MgCl2, 10 mM HEPES, 12 mM dextrose) to a density of 5.0×10^6 cells/mL. The cell suspension was added to the cell inlet wells on an IonFlux HT population patch plate which had previously been rinsed and primed with deionized H2O. Test compounds were serially diluted in DMSO and then resuspended to the final test concentration in external recording solution, with, or without 40 μM acetylcholine added to the external recording solution; test compounds were then transferred to the IonFlux HT population patch plate. Internal recording solution (110 mM TrisPO4, 28 mM TrisBase, 0.1 mM CaCl2), 2 mM MgCl2, 11 mM EGTA, 4 mM MgATP) was added to the internal recording solution inlet wells on the IonFlux HT patch plate previously loaded with cells and test compounds, and the plate loaded into the IonFlux HT instrument. A protocol was executed on the IonFlux HT to trap the cells, break into the cells, and establish the whole-cell recording configuration; cells were voltage-clamped at a holding potential of −60 mV for the duration of the experiment, all experiments were conducted at room temperature, and the IonFlux HT injection pressure was 8 psi for solution applications. Upon establishing the whole-cell configuration, external recording solution was perfused into the recording chambers for 120 seconds and then 40 μM acetylcholine was applied for 1 second and immediately washed off with external recording solution for 60 seconds. […]

Sequence of human α7 nAChR (P36544 23-502): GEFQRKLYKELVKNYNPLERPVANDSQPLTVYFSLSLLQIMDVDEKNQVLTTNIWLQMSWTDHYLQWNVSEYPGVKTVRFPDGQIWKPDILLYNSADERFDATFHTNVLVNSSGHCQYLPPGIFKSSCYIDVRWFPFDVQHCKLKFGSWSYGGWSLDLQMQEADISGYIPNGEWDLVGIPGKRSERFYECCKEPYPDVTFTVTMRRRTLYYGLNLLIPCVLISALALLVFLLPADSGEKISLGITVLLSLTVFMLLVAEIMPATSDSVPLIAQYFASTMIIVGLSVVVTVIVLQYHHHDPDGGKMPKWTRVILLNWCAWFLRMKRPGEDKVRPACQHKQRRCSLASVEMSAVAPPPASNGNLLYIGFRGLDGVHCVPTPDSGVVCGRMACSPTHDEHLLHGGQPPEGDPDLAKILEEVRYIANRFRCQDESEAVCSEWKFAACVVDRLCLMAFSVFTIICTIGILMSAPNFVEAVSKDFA

Row | SMILES | EC50 [nM]
1 | NS(=O)(=O)N1CCC2(CC1)C(c1cccc(-c3cccc(C(F)(F)F)c3)c1)C2(F)F (racemic) [Example C1, 1,1-Difluoro-2-[3′-(trifluoromethyl)biphenyl-3-yl]-6-azaspiro[2.5]octane-6-sulfonamide] | 430
2 | NS(=O)(=O)N1CCC2(CC1)C(c1cccc(-c3conc3C3CC3)n1)C2(F)F (single isomer, unassigned) [Example C2, 2-[6-(3-Cyclopropylisoxazol-4-yl)pyridin-2-yl]-1,1-difluoro-6-azaspiro[2.5]octane-6-sulfonamide] | 850
3 | NS(=O)(=O)N1CCC2(CC1)C[C@H]2c1nc2ccccc2s1 [Example 1, (1R)-1-(1,3-Benzothiazol-2-yl)-6-azaspiro[2.5]octane-6-sulfonamide] | 930
4 | NS(=O)(=O)N1CCC2(CC1)CC2c1cccc(-c2ccccc2)n1 (stereo not shown) [Example 3, 1-(6-Phenylpyridin-2-yl)-6-azaspiro[2.5]octane-6-sulfonamide] | 3000
5 | NS(=O)(=O)N1CCC2(CC1)[C@H](c1cccc(-c3ccc(C(F)(F)F)cc3)n1)C2(F)F [Example 5, (2R)-1,1-Difluoro-2-{6-[4-(trifluoromethyl)phenyl]pyridin-2-yl}-6-azaspiro[2.5]octane-6-sulfonamide] | 340
6 | NS(=O)(=O)N1CCC2(CC1)[C@H](c1cccc(-c3ccccc3C3CC3)n1)C2(F)F [Example A2, (2R)-2-[6-(2-Cyclopropylphenyl)pyridin-2-yl]-1,1-difluoro-6-azaspiro[2.5]octane-6-sulfonamide] | 830
7 | NS(=O)(=O)N1CCC2(CC1)[C@H](c1nc3ccccc3o1)C2(F)F [Example A3, (2R)-2-(1,3-Benzoxazol-2-yl)-1,1-difluoro-6-azaspiro[2.5]octane-6-sulfonamide] | 1000
8 | NS(=O)(=O)N1CCC2(CC1)[C@@H](c1cccc(-c3ccc(C(F)(F)F)cc3)n1)C2(F)F [Example B1, (2S)-1,1-Difluoro-2-{6-[4-(trifluoromethyl)phenyl]pyridin-2-yl}-6-azaspiro[2.5]octane-6-sulfonamide] | 4400

The remaining lines, values ahead:

Row | EC50 [nM] | SMILES
9 | 1600 | NS(=O)(=O)N1CCC2(CC1)C(c1cccc(-c3ccccc3)n1)C2(F)F (stereo not shown) [Example 2, 1,1-Difluoro-2-(6-phenylpyridin-2-yl)-6-azaspiro[2.5]octane-6-sulfonamide]
10 | 1900 | NS(=O)(=O)N1CCC2(CC1)[C@H](c1nccc(-c3ccccc3)n1)C2(F)F [Example 4, (2R)-1,1-Difluoro-2-(4-phenylpyrimidin-2-yl)-6-azaspiro[2.5]octane-6-sulfonamide]
11 | 2200 | Cc1ccccc1-c1cccc([C@@H]2C(F)(F)C23CCN(S(N)(=O)=O)CC3)n1 [Example 6, (2R)-1,1-Difluoro-2-[6-(2-methylphenyl)pyridin-2-yl]-6-azaspiro[2.5]octane-6-sulfonamide]
12 | 190 | NS(=O)(=O)N1CCC2(CC1)[C@H](c1cc(-c3ccccc3)ccn1)C2(F)F [Example A1, (2R)-1,1-Difluoro-2-(4-phenylpyridin-2-yl)-6-azaspiro[2.5]octane-6-sulfonamide]
13 | 1700 | NS(=O)(=O)N1CCC2(CC1)[C@@H](c1cc(-c3ccccc3)ccn1)C2(F)F [Example B2, (2S)-1,1-Difluoro-2-(4-phenylpyridin-2-yl)-6-azaspiro[2.5]octane-6-sulfonamide]
